Reference: PMC6100633, “Design, Synthesis, and Evaluation of a New Series of Thiazole-Based Anticancer Agents as Potent Akt Inhibitors” (Molecules : A Journal of Synthetic Chemistry and Natural …, 2018)
≈ marks a conversion by molar mass, not a printed value.

Legend:
Akt [1] = assay: In cell ELISA colorimetric Akt activity, A549 cells; type: cell-based, human; details: compounds at IC50 concentrations for 24 h
Procedure: (§1) Briefly, the media was removed and 100 µL of 4% formaldehyde was added to each well. The plate was incubated in a fume hood at room temperature for 15 min. Formaldehyde was removed and the plate was washed twice with 100 µL/well of 1× TBS. Then, 1× TBS was removed, 100 µL/well of 1× permeabilization buffer was added and incubated for 15 min at room temperature. The permeabilization buffer was removed and the plate was washed once with 100 µL/well of 1× TBS. Then, 1× TBS was removed, 100 µL/well quenching solution was added and incubated at room temperature for 20 min. Quenching solution was removed and the plate was washed once with 100 µL/well of 1× TBS. Then, 1× TBS was removed and 100 µL/well of blocking buffer was added and incubated at room temperature for 30 min. After the blocking buffer was removed, 50 µL/well of primary antibody was added. A plate sealer was applied and incubated overnight at 4 °C. The primary antibody solution was removed and the plate was washed three times with 100 µL/well of 1× wash Buffer. After the wash buffer was removed, 100 µL/well of diluted HRP conjugate was added and incubated for 30 min at room temperature. The wash buffer was removed and 100 µL/well of TMB substrate was added. The plate was then incubated at room temperature, protected from light. 100 µL/well of TMB stop solution was added and the absorbance was measured at 450 nm within 30 min of stopping the reaction. The experiment was performed in triplicate wells. The values of blank wells were subtracted from each well of treated and control cells. Percent Akt activity was defined as the relative absorbance of treated versus untreated control cells.

A549 cells = assay: Annexin V FITC/PI flow cytometric analysis of apoptosis, A549 cells; type: cell-based, human; details: 24 h, compounds at IC50 values
Procedure: (§2) Annexin V staining protocol was applied according to the manufacturer’s instructions (BD Pharmingen, San Jose, CA, USA). The cells were then briefly washed with cold phosphate buffer saline (PBS) and suspended in a binding buffer at a concentration of 1 × 10^6 cells/mL. Then, 100 µL of this solution containing 1 × 10^5 cells was transferred to a 5 mL test tube. After 5 µL of Annexin V and PI was added, the cells were incubated for 15 min at room temperature in the dark. Then 400 µL of 1× binding buffer was added to each tube and the cells were processed for data acquisition, and analyzed on a BD FACSAria flow cytometer using FACSDiva version 6.1.1 software (BD Biosciences, San Jose, CA, USA).

C6 cells = assay: Annexin V FITC/PI flow cytometric analysis of apoptosis, C6 cells; type: cell-based, rat; details: for early and late apoptotic cell population: C6 cell line, sum of early and late apoptotic cells; for Early Apoptotic Cells% / Late Apoptotic Cells% / Viable Cells%: C6 cells, 24 h, compounds at IC50 values
Procedure: as §2

C6 rat glioma cell line = assay: MTT assay, C6 cells; type: cell-based; details: for IC50: Rattus norvegicus, C6, 24 h
Procedure: (§3) C6 Rat glioma and NIH/3T3 mouse embryonic fibroblast cells were incubated in Dulbecco’s Modified Eagle’s Medium (DMEM) (Sigma, Deisenhofen, Germany) supplemented with 10% fetal calf serum (Gibco, Paisley, UK). A549 Human lung adenocarcinoma cells were incubated in 90% RPMI supplemented with 10% fetal bovine serum (Gibco, Paisley, UK). All media were supplemented with 100 IU/mL penicillin-streptomycin (Gibco, Paisley, UK) and the cells were incubated at 37 °C in a humidified atmosphere of 95% air and 5% CO2. Exponentially growing cells were plated at 2 × 10^4 cells/mL into 96-well microtiter tissue culture plates (Nunc, Roskilde, Denmark) and incubated for 24 h before the addition of the drugs (the optimum cell number for cytotoxicity assays was determined in preliminary experiments). The stock solutions of the compounds were prepared in dimethyl sulfoxide (DMSO; Sigma Aldrich, Poole, UK) and further dilutions were made with fresh culture medium (the concentration of DMSO in the final culture medium was <0.1% which had no effect on the cell viability).
(§4) The level of cellular 3-(4,5-dimethylthiazol-2-yl)-2,5-diphenyltetrazolium bromide (MTT) (Sigma-Aldrich, St. Louis, MO, USA) reduction was quantified as previously described in the literature with small modifications. […] At the end of this period, MTT was added to a final concentration of 0.5 mg/mL and the cells were incubated for 4 h at 37 °C. After the medium was removed, the formazan crystals formed by MTT metabolism were solubilized by addition of 200 µL DMSO to each well and absorbance was read at 540 nm with a microtiter plate spectrophotometer (BioTek Plate Reader, Winooski, VT, USA). Every concentration was repeated in three wells.

Akt [2] = assay: In cell ELISA colorimetric Akt activity, C6 cells; type: cell-based, rat; details: compounds at IC50 concentrations for 24 h
Procedure: as §1

[3] = test system: A549 human lung adenocarcinoma cell line; assay: MTT assay, A549 cells; type: cell-based; details: for IC50: Homo sapiens, A549, 24 h
Procedure: as §3, §4

[4] = test system: NIH/3T3 mouse embryonic fibroblast cell line; assay: MTT assay, NIH/3T3 cells (healthy); type: cell-based; details: NIH3T3, 24 h
Procedure: as §3, with “viability). The level of cellular 3-(4,5-dimethylthiazol-2-yl)-2,5-diphenyltetrazolium bromide (MTT) (Sigma-Aldrich, St. Louis, MO, USA) reduction was quantified as previously described in the literature with small modifications. […] At the end of this period, MTT was added to a final concentration of 0.5 mg/mL and the cells were incubated for 4 h at 37 °C. After the medium was removed, the formazan crystals formed by MTT metabolism were solubilized by addition of 200 µL DMSO to each well and absorbance was read at 540 nm with a microtiter plate spectrophotometer (BioTek Plate Reader, Winooski, VT, USA). Every concentration was repeated in three wells.” for “viability).”

## N.N.[Cl][Pt][Cl] [Cisplatin, cisplatin, reference compound]
Akt [1]
  Akt Inhibition % A549 Cell Line: 31.01 ± 3.18%
A549 cells
  Early Apoptotic Cells%: 2.6%
  Late Apoptotic Cells%: 63.5%
C6 cells
  early and late apoptotic cell population: 28.8%
  Early Apoptotic Cells%: 3.3%
  Late Apoptotic Cells%: 25.5%
C6 rat glioma cell line; 24 h
  IC50 C6 Cell Line: 12.67 ± 3.06 µg/mL
Akt [2]
  Akt Inhibition % C6 Cell Line: 77.25 ± 5.75%
[3]; 24 h
  IC50 A549 Cell Line: 17.33 ± 2.08 µg/mL

## N#Cc1ccc(Oc2ccc(C=NNc3nc(-c4ccccc4)cs3)cc2)cc1 [Compound 1, 2-[2-((4-(4-Cyanophenoxy)phenyl)methylene)hydrazinyl]-4-phenylthiazole]
[4]
  IC50: 197 ± 20.8 µg/mL (≈ 496 µM)
C6 rat glioma cell line
  IC50: > 500 µg/mL
[3]
  IC50: 410 ± 14.1 µg/mL (≈ 1030 µM)

## N#Cc1ccc(Oc2ccc(C=NNc3nc(-c4ccc([N+](=O)[O-])cc4)cs3)cc2)cc1 [Compound 2, 2-[2-((4-(4-Cyanophenoxy)phenyl)methylene)hydrazinyl]-4-(4-nitrophenyl)thiazole]
[4]
  IC50: 71.7 ± 24.7 µg/mL (≈ 162 µM)
C6 rat glioma cell line
  IC50: > 500 µg/mL
other
  melting point: 250 to 251 °C
[3]
  IC50: 100 ± 20 µg/mL (≈ 227 µM)

## N#Cc1ccc(Oc2ccc(C=NNc3nc(-c4ccc(F)cc4)cs3)cc2)cc1 [Compound 3, 2-[2-((4-(4-Cyanophenoxy)phenyl)methylene)hydrazinyl]-4-(4-fluorophenyl)thiazole]
[4]
  IC50: 170 ± 36.1 µg/mL (≈ 410 µM)
C6 rat glioma cell line
  IC50: > 500 µg/mL
other
  melting point: 204 to 205 °C
[3]
  IC50: 193 ± 15.3 µg/mL (≈ 466 µM)

## N#Cc1ccc(Oc2ccc(C=NNc3nc(-c4ccc(Cl)cc4)cs3)cc2)cc1 [Compound 4, 2-[2-((4-(4-Cyanophenoxy)phenyl)methylene)hydrazinyl]-4-(4-chlorophenyl)thiazole]
[4]
  IC50: 180 ± 10 µg/mL (≈ 418 µM)
C6 rat glioma cell line
  IC50: > 500 µg/mL
other
  melting point: 227 to 228 °C
[3]
  IC50: 207 ± 23.1 µg/mL (≈ 480 µM)

## N#Cc1ccc(Oc2ccc(C=NNc3nc(-c4ccc(Br)cc4)cs3)cc2)cc1 [Compound 5, 2-[2-((4-(4-Cyanophenoxy)phenyl)methylene)hydrazinyl]-4-(4-bromophenyl)thiazole]
[4]
  IC50: 163 ± 5.77 µg/mL (≈ 344 µM)
C6 rat glioma cell line
  IC50: > 500 µg/mL
other
  melting point: 217 to 218 °C
[3]
  IC50: 198 ± 10.4 µg/mL (≈ 417 µM)

## N#Cc1ccc(Oc2ccc(C=NNc3nc(-c4ccc(C#N)cc4)cs3)cc2)cc1 [Compound 6, 2-[2-((4-(4-Cyanophenoxy)phenyl)methylene)hydrazinyl]-4-(4-cyanophenyl)thiazole]
[4]
  IC50: > 500 µg/mL
Akt [1]
  Akt Inhibition % A549 Cell Line: 45.77 ± 10.58%
A549 cells
  Early Apoptotic Cells%: 2.3%
  Late Apoptotic Cells%: 36.5%
  Viable Cells%: 14.4%
C6 cells
  early and late apoptotic cell population: 32.8%
  Early Apoptotic Cells%: 4.6%
  Late Apoptotic Cells%: 28.2%
  Viable Cells%: 42.2%
C6 rat glioma cell line
  IC50: 3.83 ± 0.76 µg/mL (≈ 9.09 µM)
other
  melting point: 232 to 233 °C
Akt [2]
  Akt Inhibition % C6 Cell Line: 71.66 ± 4.09%
[3]
  IC50: 12 ± 1.73 µg/mL (≈ 28.5 µM)

## Cc1ccc(-c2csc(NN=Cc3ccc(Oc4ccc(C#N)cc4)cc3)n2)cc1 [Compound 7, 2-[2-((4-(4-Cyanophenoxy)phenyl)methylene)hydrazinyl]-4-(4-methylphenyl)thiazole]
[4]
  IC50: 185 ± 5 µg/mL (≈ 451 µM)
C6 cells
  Early Apoptotic Cells%: 3.2%
  Late Apoptotic Cells%: 14.3%
  Viable Cells%: 69.2%
C6 rat glioma cell line
  IC50: 16 ± 5.66 µg/mL (≈ 39 µM)
other
  melting point: 228 to 229 °C
Akt [2]
  Akt Inhibition % C6 Cell Line: 70.42 ± 10.37%
[3]
  IC50: 270 ± 95.4 µg/mL (≈ 658 µM)

## N#Cc1ccc(Oc2ccc(C=NNc3nc(-c4ccc(O)cc4)cs3)cc2)cc1 [Compound 8, 2-[2-((4-(4-Cyanophenoxy)phenyl)methylene)hydrazinyl]-4-(4-hydroxyphenyl)thiazole]
[4]
  IC50: 227 ± 11.6 µg/mL (≈ 550 µM)
Akt [1]
  Akt Inhibition % A549 Cell Line: 57.37 ± 17.30%
A549 cells
  Early Apoptotic Cells%: 2.1%
  Late Apoptotic Cells%: 38.7%
  Viable Cells%: 18.5%
C6 cells
  Early Apoptotic Cells%: 1.9%
  Late Apoptotic Cells%: 23.8%
  Viable Cells%: 49.7%
C6 rat glioma cell line
  IC50: 5.83 ± 0.76 µg/mL (≈ 14.1 µM)
other
  melting point: 249 to 250 °C
Akt [2]
  Akt Inhibition % C6 Cell Line: 24.99 ± 0.52%
[3]
  IC50: 107 ± 5.77 µg/mL (≈ 259 µM)

## COc1ccc(-c2csc(NN=Cc3ccc(Oc4ccc(C#N)cc4)cc3)n2)cc1 [Compound 9, 2-[2-((4-(4-Cyanophenoxy)phenyl)methylene)hydrazinyl]-4-(4-methoxyphenyl)thiazole]
[4]
  IC50: 433 ± 28.9 µg/mL (≈ 1020 µM)
C6 rat glioma cell line
  IC50: > 500 µg/mL
other
  melting point: 210 to 211 °C
[3]
  IC50: 233 ± 57.7 µg/mL (≈ 547 µM)

## N#Cc1ccc(Oc2ccc(C=NNc3nc(-c4ccc5ccccc5c4)cs3)cc2)cc1 [Compound 10, 2-[2-((4-(4-Cyanophenoxy)phenyl)methylene)hydrazinyl]-4-(naphthalen-2-yl)thiazole]
[4]
  IC50: > 500 µg/mL
C6 rat glioma cell line
  IC50: > 500 µg/mL
other
  melting point: 204 to 205 °C
[3]
  IC50: > 500 µg/mL

## N#Cc1ccc(Oc2ccc(C=NNC(N)=S)cc2)cc1 [Compound A, 4-(4-Cyanophenoxy)benzaldehyde thiosemicarbazone]
[4]
  IC50: 225 ± 18 µg/mL (≈ 759 µM)
Akt [1]
  Akt Inhibition % A549 Cell Line: 68.08 ± 2.48%
A549 cells
  Early Apoptotic Cells%: 7.6%
  Late Apoptotic Cells%: 45.9%
  Viable Cells%: 24.2%
C6 cells
  Early Apoptotic Cells%: 3.2%
  Late Apoptotic Cells%: 13.1%
  Viable Cells%: 70.2%
C6 rat glioma cell line
  IC50: 26.3 ± 1.53 µg/mL (≈ 88.8 µM)
other
  melting point: 235 to 236 °C
Akt [2]
  Akt Inhibition % C6 Cell Line: 25.23 ± 8.62%
[3]
  IC50: 92.5 ± 3.54 µg/mL (≈ 312 µM)
